Measured values as given in patent US20060258581A1, “Methods and composition for derepressions of IAP-inhibited caspase” (priority 2001, published 2006).
Like-named read-outs stand apart in the source and are kept apart here.

How the values were obtained:
[1] = tested on: PC-3 and LNCaP prostate cancer cell lines; assay: Clonogenic survival (colony formation) assay; format: cell-based; conditions: Homo sapiens
Experimental: In addition to short-term cytotoxicity assays selected polyphenylurea compounds were tested for effects on clonogenic survival of cancer cells in colony formation assays, which can be considered a more stringent test of anticancer activity.

[2] = tested on: tumor cells pulsed with specific antigen, antigen-specific T cells; assay: Antigen-specific CTL cytotoxicity, 51Cr release; format: cell-based; conditions: 10 μM, 4 hours
Experimental: After 4 hours, ^51Cr release was measured. Data shown in FIG. 39 are expressed as a percentage of total release induced by detergent lysis, and data represent mean±standard deviation of duplicate determinations.

XIAP-inhibited caspase-3 = biological target: T1, XIAP-inhibited caspase-3 (Homo sapiens, UniProt P98170); assay: IAP derepression assay: Ac-DEVD-AFC hydrolysis by caspase-3 in the presence of GST-XIAP; format: biochemical; conditions: in words
T1 construct: in a caspase derepression assay using full length XIAP; made in house; host or cells: bacteria
Experimental: The ratio of Vmax for hydrolysis of Ac-DEVD-AFC in the presence and absence of the candidate mixture was calculated and used to identify those that contain an agent that derepresses an IAP-inhibited caspase.
Each mixture was aliquoted in a 25 microliter volume and in duplicate to a well of a 96 well microtiter plate. […] Fluorescence of liberated AFC was immediately detected from each well for 30 minutes at 30 second intervals. The Vmax for hydrolysis of AC-DEVD-AFC from each well was measured using the softmax software package.

HeLa cells = assay: Transfected HeLa cells, apoptosis by Annexin V; format: cell-based; conditions: 5 μM, 20 hours
Experimental: In addition to transfecting the cells with full-length XIAP, analogous assays were performed with HeLa cells transfected with plasmids over-expressing various XIAP mutants. […] The mutant was produced by site-directed mutagenesis to modify positions 148, 219, 223, 314 and 323 to contain alanine. HeLa cells were also transiently transfected with plasmids encoding Bcl-XL, an anti-apoptotic protein that operates upstream of caspases to suppress Cytochrome C release from mitochondria. HeLa cells (2.5×10^5) were seeded onto six well plates in 2 mL DMEM H21 with 5% FBS. After 24 hrs, cells were transfected (Gene Porter) with plasmids. […] Both floating and adherent cells were then recovered from cultures, washed, and apoptosis was determined by Annexin V staining using flow cytometry.
Bcl-XL over-expression did afford resistance to traditional anticancer drugs such as etoposide and CrmA (a caspase-8 inhibitor), and protected cells from apoptosis induced by TRAIL, confirming that these anti-apoptotic proteins were functional in these experiments.

Jurkat leukemia cells = assay: Jurkat leukemia cell death, Annexin V/propidium iodide flow cytometry; format: cell-based; conditions: for cells killed: one day treatment
Experimental: The following assay was used to test the ability of individual compounds from the TPI 1396 and TPI 1391 libraries to induce apoptosis of cultured tumor cell lines. Each of the compounds listed in Table IX was individually added to Jurkat leukemia cells (6.25×10^5 cells/mL) in RPMI containing 2.5% FBS at various concentrations for 20 hours. After incubation, cells were washed and stained with FITC-conjugated Annexin V antibody and propidium iodide (Biovision; Mountain View, Calif.). Cells were incubated for 20 minutes at room temperature in the dark and fluorescence was measured by flow cytometry (FACScan, Immunocytometry system; Becton-Dickinson; San Jose, Calif.). Cells staining positive for Annexin V were deemed non-viable.
The TPI I396-34 and TPI 1391-28 compounds were further tested as set forth below.

[3] = tested on: U937 leukemia cells over-expressing XIAP; assay: U937-Neo versus U937-XIAP leukemia cells, Annexin V; format: cell-based; conditions: 5 or 8 μM, 20 hours
Experimental: After incubation, cells were washed, stained with FITC-conjugated Annexin V antibody and propidium iodide, and fluorescence measured by flow cytometry as described in Example XI.
Equal amounts of protein were subjected to SDS-PAGE (4-20% gradient gels from ISC BioExpress, Kaysville, Utah), followed by transfer to nitrocellulose membranes. […] Secondary antibodies consisted of horseradish peroxidase (HRP)-conjugated:goat anti-mouse IgG (Bio-Rad, Hercules, Calif.). Detection was performed by the enhanced chemiluminescence (ECL) method. […] Lysates were prepared from the cells, normalized for total protein content and analyzed by SDS-PAGE immunoblotting using antibodies specific for XIAP, caspase-3, and β-actin.

[4] = tested on: Du145 prostate cancer cells; assay: Combination with anticancer drugs, MTT assay; format: cell-based; conditions: 10 μM, 48 hours
Experimental: The percentage of viable cells relative to control was determined using a MTT (3-(4,5-dimethylthiazolyl-2)-2,5-diphenyltetrazolium bromide) assay which is commercially available (Sigma). […] Similar results were obtained for PPC1 (FIG. 31b) and PC3 (FIG. 31c) prostate cancer cells treated with VP16, DOX, or TAXOL, and for H460 (FIG. 31d) lung cancer cells treated with VP16 or DOX.

XIAP = XIAP (Homo sapiens, UniProt P98170); assay: SMAC binding/competition assay: biotinylated SMAC 7-mer on NeutrAvidin plates, GST-XIAP detected by anti-GST; conditions: in words
Experimental: Peptide compounds containing unnatural amino acids in the 792 series, 792-33 and 792-35 (see FIG. 12 and 20 and Example XI), and an active compound in the TPI 1332 series, TPI 1332-69, were tested for binding activity in the SMAC binding assay as described above in Example X. For this assay, biotinylated SMAC 7-mer peptide (50 ng) was bound to 96 well plates coated with NeutrAvidin (Pierce, Rockford, Ill.) at 1 mg/ml in 100 μl per well of 50 mM HEPES pH 7.4, 100 mM NaCl 1 mM EDTA, 10% sucrose, 0.1% CHAPS, 10 mM DTT.

[5] = tested on: PPC1, ALVA31, DU145 and HeLa cells; assay: Combination with TRAIL; format: cell-based; conditions: 1 µM
Experimental: Similar tests of the effects of polyphenyl urea compounds on apoptosis induction by the biological agent TRAIL, an apoptosis inducing member of the Tumor Necrosis Factor (TNF) family were also performed.

[6] = tested on: caspase-3 and caspase-7 activity in Jurkat cells; assay: Caspase-3 and caspase-7 activity in whole Jurkat cells, cell permeable substrate; format: cell-based; conditions: 8 μM, 20 hours
[7] = tested on: normal bone marrow mononuclear cells; assay: Normal bone marrow mononuclear cells versus Jurkat, Annexin V, 20 hours; format: cell-based; conditions: 5 μM
Experimental: After incubation, cells were washed, stained with FITC-conjugated Annexin V antibody and propidium iodide, and fluorescence measured by flow cytometry as described above.

[8] = tested on: mouse embryo fibroblasts, human prostate epithelial cells, peripheral blood lymphocytes; assay: Normal cells (MEFs, human prostate epithelial cells, PBLs), 2 days, annexin-V; format: cell-based; design: dose or concentration left out as unconfirmed
Experimental: (§1) After 2 days, cell viability was assessed by annexin-V staining.

[9] = tested on: Jurkat and HeLa tumor cell lines; assay: Tumor cell lines Jurkat and HeLa, 2 days, annexin-V; format: cell-based; design: dose or concentration left out as unconfirmed
Experimental: as §1

T1 sequence (P98170 whole entry): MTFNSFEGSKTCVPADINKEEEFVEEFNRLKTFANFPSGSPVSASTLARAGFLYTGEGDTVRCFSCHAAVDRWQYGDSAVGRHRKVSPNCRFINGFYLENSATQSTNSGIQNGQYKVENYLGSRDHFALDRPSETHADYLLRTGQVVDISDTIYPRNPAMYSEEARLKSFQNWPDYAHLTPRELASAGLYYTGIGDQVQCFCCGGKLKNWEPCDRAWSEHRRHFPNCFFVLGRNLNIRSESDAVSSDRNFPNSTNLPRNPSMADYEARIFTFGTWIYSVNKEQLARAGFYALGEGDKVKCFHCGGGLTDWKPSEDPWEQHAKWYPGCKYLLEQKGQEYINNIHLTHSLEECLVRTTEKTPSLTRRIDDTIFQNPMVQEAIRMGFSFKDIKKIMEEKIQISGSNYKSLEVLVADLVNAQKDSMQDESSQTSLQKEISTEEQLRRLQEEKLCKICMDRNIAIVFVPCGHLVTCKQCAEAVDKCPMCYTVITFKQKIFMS
Sequence of XIAP (P98170 whole entry): as above

COc1ccc(CCN2CCC[C@@H]2CN(C(=O)Nc2ccccc2)[C@@H](CNC(=O)Nc2ccccc2)CC2CCCCC2)cc1 [TPI 1396-34]
activity at 10 µM ([1]; 10 μM, read-out: colony formation, % of control): < 5%
EC50 ([1]; 3 days culture, colonies counted one week later, read-out: average EC50 dose, clonogenic survival): 3 µM
CTL-mediated lysis of tumor targets [2]: sensitizes tumor targets to CTL-mediated lysis
activity in the caspase derepression assay using full length XIAP (XIAP-inhibited caspase-3): active XIAP inhibitors
apoptosis in HeLa cells over-expressing Bcl-XL (HeLa cells): not blocked
apoptosis in HeLa cells over-expressing full-length XIAP (HeLa cells): protected
apoptosis in HeLa cells transfected with a control vector (HeLa cells): induced apoptosis
cells killed (Jurkat leukemia cells; 5 μM): about 75%
cells killed (Jurkat leukemia cells; 8 μM): ~85%
time to maximum killing (Jurkat leukemia cells; 10 µM): about 24 hours
cytotoxicity at 1 µM (Jurkat leukemia cells; Homo sapiens, Jurkat, 20 h, 1 μM, 20 hours, read-out: % nonviable cells): 13%
cytotoxicity at 5 µM (Jurkat leukemia cells; Homo sapiens, Jurkat, 20 h, 5 μM (first column headed 5), 20 hours, read-out: % nonviable cells): 73%
cytotoxicity at 5 µM (Jurkat leukemia cells; Homo sapiens, Jurkat, 20 h, 5 μM (second column headed 5), 20 hours, read-out: % nonviable cells): 51%
cytotoxicity at 10 µM (Jurkat leukemia cells; Homo sapiens, Jurkat, 20 h, 10 μM, 20 hours, read-out: % nonviable cells): 62%
cytotoxicity at 25 µM (Jurkat leukemia cells; Homo sapiens, Jurkat, 20 h, 25 μM, 20 hours, read-out: % nonviable cells): 83%
cytotoxicity at 50 µM (Jurkat leukemia cells; Homo sapiens, Jurkat, 20 h, 50 μM, 20 hours, read-out: % nonviable cells): 85%
EC50 (Jurkat leukemia cells; Homo sapiens, Jurkat, 24 h, one-day exposure, read-out: EC50 for killing Jurkat leukemia cells): ~6.5 µM
effect of over-expression of XIAP on apoptosis induction [3]: resistant
effect on dose-dependent cytotoxicity of VP16, DOX and TAXOL [4]: significantly increased dose-dependent cytotoxicity
competition with XIAP binding to the SMAC peptide (SMAC competition assay) (XIAP): does not compete
sensitization to TRAIL-induced apoptosis [5]: sensitized
caspase activation in whole cells [6]: induced caspase activation
toxicity to normal bone marrow cells [7]: little toxicity
increase of percentage cell death above background [8]: less than one-fold
increase of killing above background [9]: > 4 fold
